According to ChEMBL document CHEMBL1156746, “New small molecule inhibitors of hepatitis C virus” (Bioorg Med Chem Lett, 2009):

Legend:
Hepatitis C virus [1] = experiment: Antiviral activity against HCV2a J6/JFH1 infected in Huh7-5 cells at early T1 stage assessed as inhibition of core protein dimerization by RT PCR; assay type: functional, organism-based, Hepacivirus hominis; conditions: subtype 2a J6/JFH1, Huh7.5
Hepatitis C virus [2] = experiment: Antiviral activity against HCV2a J6/JFH1 infected in Huh7-5 cells at late T2 stage assessed as inhibition of core protein dimerization by RT PCR; assay type: functional, organism-based, Hepacivirus hominis; conditions: subtype 2a J6/JFH1, Huh7.5
[3] = Cytotoxicity against human Huh7.5 cells; assay type: cell-based, Huh-7
Hepatitis C virus [4] = experiment: Antiviral activity against HCV2a J6/JFH1 infected in Huh7-5 cells assessed as inhibition of core protein dimerization by RT PCR; assay type: functional, organism-based, Hepacivirus hominis, subtype 2a J6/JFH1
[5] = Hepatitis C virus, subtype 2a J6/JFH1, Huh7.5, read-out: IC50

| SMILES | EC50 (Hepatitis C virus [1]) | EC50 (Hepatitis C virus [2]) | IC50 (Hepatitis C virus [4]; [5]) | CC50 ([3]; Huh7.5 cells) | CC50 ([3]; huh-7) | IC50 (Hepatitis C virus [4]; huh7-5) |
| --- | --- | --- | --- | --- | --- | --- |
| CC#CCN1c2ccc(OC)cc2[C@]23CCC(=O)N(CCOC)C2=NC(C(=O)OC)=C(C(=O)OC)C13 (mixture of isomers) | 4.9 µM | 0.7 µM | 2 µM | > 320 µM |  |  |
| COC(=O)C1=C(C(=O)OC)C2N(C)c3ccc(OC)cc3[C@@]23C[C@@H](C(=O)OC)N(C(=O)CC(C)C)C3=N1 (mixture of isomers) | 14.8 µM | 22.2 µM | 9.3 µM | > 320 µM |  |  |
| COc1ccc2c(O[C@@H]3C[C@H]4C(=O)N[C@]5(C(=O)O)C[C@H]5/C=C\CCCCC[C@H](NC(=O)OC5CCCC5)C(=O)N4C3)cc(-c3csc(NC(C)C)n3)nc2c1 [CILUPREVIR] | 0.072 µM | 0.071 µM |  |  | 5.3 µM | Not Active |

More lines, in order of falling EC50 (Hepatitis C virus [1]), values ahead:

| EC50 (Hepatitis C virus [1]) | EC50 (Hepatitis C virus [2]) | IC50 (Hepatitis C virus [4]; [5]) | SMILES | CC50 ([3]; Huh7.5 cells) | CC50 ([3]; huh-7) | IC50 (Hepatitis C virus [4]; huh7-5) |
| --- | --- | --- | --- | --- | --- | --- |
| 3.8 µM | 3 µM | 2 µM | C=CCN1c2ccc(OC)cc2[C@]23CCC(=O)N(Cc4cc(OC)c(OC)c(OC)c4)C2=NC(C(=O)OC)=C(C(=O)OC)C13 (mixture of isomers) | 5.3 µM |  |  |
| 2.3 µM | 3.2 µM | 1.4 µM | C=CCN1c2ccc(OC)cc2[C@]23CCC(=O)N(Cc4ccccc4)C2=NC(C(=O)OC)=C(C(=O)OC)C13 (mixture of isomers) | 127 µM |  |  |
